The source of these data is patent US8357504B2, “Method and kit for the microbiological determination of vitamins in substance mixtures” (IFP Privates Institut fur Produktqualitat GmbH, priority 2004, dated 2013).

“And” between values parts separate entries of the source, which are not always exact repeats. Identical values can stand only once.

Test [1] concerns Lactobacillus rhamnosus ATCC 7469. As to the kind of experiment: Microbiological riboflavin determination (growth turbidity, riboflavin assay medium). Type of test: cell-based. Particulars: for Average value (measurement at 630 nm): number 3; for Measurement at 630 nm: single well. The text has this:
The preparation of the microtitration plate and the determination of riboflavin was effected as in Example 1, except only that Lactobacillus rhamnosus ATCC 7469 was employed as test organism. As assay medium there was employed Difco™ riboflavin assay medium, containing cas amino acids 10.0 g/L, dextrose 20.0 g/L, sodium acetate 15.0 g/L, dipotassium hydrogen phosphate 1.0 g/L, potassium dihydrogen phosphate 1.0 g/L, L-asparagine 0.6 g/L, L-cystine 0.2 g/L, DL-tryptophane 0.2 g/L, magnesium sulfate 0.4 g/L, adenine sulfate 20.0 mg/L, guanine hydrochloride 20.0 mg/L, uracil 20.0 mg/L, xanthin 20 mg/L, iron sulfate 20.0 mg/L, manganese sulfate 20.0 mg/L, sodium chloride 20.0 mg/L, pyridoxine hydrochloride 4.0 mg/L, pyridoxal hydrochloride 4.0 mg/L, p-aminobenzoic acid 2.0 mg/L, calcium pantothenate 800 μg/L, folic acid 800 μg/L, nicotinic acid 800 μg/L, thiamine hydrochloride 400 μg/L, biotin 1.0 μg/L. The storage medium additionally contained 200 mM trehalose.

Test [2] relates to Lactobacillus plantarum (ATCC 8014). Particulars: cited from earlier work.
[3] abbreviates: riboflavin standard 0.1 mg/100 g.
Where [4] appears, read: riboflavin standard 0.2 mg/100 g.
Setting [5] is: riboflavin standard 0.3 mg/100 g.
Setting [6] is: riboflavin standard 0.4 mg/100 g.
Where [7] appears, read: riboflavin standard 0.5 mg/100 g.

Take `Cc1cc2nc3c(=O)[nH]c(=O)nc-3n(C[C@H](O)[C@H](O)[C@H](O)CO)c2cc1C` [B2 Riboflavin, riboflavin]: the “Average value (measurement at 630 nm)” value in test [1] (setting [3]) turned out to be 0.204; in test [1] (setting [4]), 0.398; in test [1] (setting [5]) it was 0.623; in test [1] (setting [6]), 0.759; in test [1] (setting [7]), 0.88. For the same molecule, the “Measurement at 630 nm” value in test [1] (setting [3]) was 0.196 and 0.209 and 0.206; in test [1] (setting [4]) it was 0.404 and 0.408 and 0.383; in test [1] (setting [5]) it was 0.624 and 0.616 and 0.628; in test [1] (setting [6]), 0.752 and 0.755 and 0.771; in test [1] (setting [7]) it was 0.855 and 0.886 and 0.9.
In the case of Niacytine, the “Consumption by the test organism” value in test [2] was “not consumed”.
